Patent US20250114345A1, “COMPOUNDS AND COMPOSITIONS AS CBP/P300 DEGRADERS AND USES THEREOF” (Oncopia Therapeutics, Inc. d/b/a/ SK Life Science Labs, priority 2023, published 2025)

Key:
CBP = molecular target: T1, CBP (Homo sapiens, UniProt Q92793); assay: CBP degradation, HiBit technology in A549 CBP HiBit cells (24 h); format: cell-based; conditions: 24 hrs post treatment
T1 construct: host or cells: A549 CBP HiBit cells
How it was run: (§1)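 HiBiT knock-in A549 cells received compound in serial dilution at 37 °C under 5% CO2. Remaining tagged protein was quantified by lytic HiBiT luminescence after 10 min shaking at room temperature, yielding potency and maximal degradation.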

p300 = molecular target: T2, p300 (Homo sapiens, UniProt Q09472); assay: P300 degradation, HiBit technology in A549 P300 HiBit cells (2 h); format: cell-based; conditions: 2 hrs post treatment; for Dmax: A549, A549 P300 HiBit cells; for DC50: A549 P300 HiBit cells
T2 construct: host or cells: A549 P300 HiBit cells
How it was run: as §1

T2 sequence (Q09472 whole entry): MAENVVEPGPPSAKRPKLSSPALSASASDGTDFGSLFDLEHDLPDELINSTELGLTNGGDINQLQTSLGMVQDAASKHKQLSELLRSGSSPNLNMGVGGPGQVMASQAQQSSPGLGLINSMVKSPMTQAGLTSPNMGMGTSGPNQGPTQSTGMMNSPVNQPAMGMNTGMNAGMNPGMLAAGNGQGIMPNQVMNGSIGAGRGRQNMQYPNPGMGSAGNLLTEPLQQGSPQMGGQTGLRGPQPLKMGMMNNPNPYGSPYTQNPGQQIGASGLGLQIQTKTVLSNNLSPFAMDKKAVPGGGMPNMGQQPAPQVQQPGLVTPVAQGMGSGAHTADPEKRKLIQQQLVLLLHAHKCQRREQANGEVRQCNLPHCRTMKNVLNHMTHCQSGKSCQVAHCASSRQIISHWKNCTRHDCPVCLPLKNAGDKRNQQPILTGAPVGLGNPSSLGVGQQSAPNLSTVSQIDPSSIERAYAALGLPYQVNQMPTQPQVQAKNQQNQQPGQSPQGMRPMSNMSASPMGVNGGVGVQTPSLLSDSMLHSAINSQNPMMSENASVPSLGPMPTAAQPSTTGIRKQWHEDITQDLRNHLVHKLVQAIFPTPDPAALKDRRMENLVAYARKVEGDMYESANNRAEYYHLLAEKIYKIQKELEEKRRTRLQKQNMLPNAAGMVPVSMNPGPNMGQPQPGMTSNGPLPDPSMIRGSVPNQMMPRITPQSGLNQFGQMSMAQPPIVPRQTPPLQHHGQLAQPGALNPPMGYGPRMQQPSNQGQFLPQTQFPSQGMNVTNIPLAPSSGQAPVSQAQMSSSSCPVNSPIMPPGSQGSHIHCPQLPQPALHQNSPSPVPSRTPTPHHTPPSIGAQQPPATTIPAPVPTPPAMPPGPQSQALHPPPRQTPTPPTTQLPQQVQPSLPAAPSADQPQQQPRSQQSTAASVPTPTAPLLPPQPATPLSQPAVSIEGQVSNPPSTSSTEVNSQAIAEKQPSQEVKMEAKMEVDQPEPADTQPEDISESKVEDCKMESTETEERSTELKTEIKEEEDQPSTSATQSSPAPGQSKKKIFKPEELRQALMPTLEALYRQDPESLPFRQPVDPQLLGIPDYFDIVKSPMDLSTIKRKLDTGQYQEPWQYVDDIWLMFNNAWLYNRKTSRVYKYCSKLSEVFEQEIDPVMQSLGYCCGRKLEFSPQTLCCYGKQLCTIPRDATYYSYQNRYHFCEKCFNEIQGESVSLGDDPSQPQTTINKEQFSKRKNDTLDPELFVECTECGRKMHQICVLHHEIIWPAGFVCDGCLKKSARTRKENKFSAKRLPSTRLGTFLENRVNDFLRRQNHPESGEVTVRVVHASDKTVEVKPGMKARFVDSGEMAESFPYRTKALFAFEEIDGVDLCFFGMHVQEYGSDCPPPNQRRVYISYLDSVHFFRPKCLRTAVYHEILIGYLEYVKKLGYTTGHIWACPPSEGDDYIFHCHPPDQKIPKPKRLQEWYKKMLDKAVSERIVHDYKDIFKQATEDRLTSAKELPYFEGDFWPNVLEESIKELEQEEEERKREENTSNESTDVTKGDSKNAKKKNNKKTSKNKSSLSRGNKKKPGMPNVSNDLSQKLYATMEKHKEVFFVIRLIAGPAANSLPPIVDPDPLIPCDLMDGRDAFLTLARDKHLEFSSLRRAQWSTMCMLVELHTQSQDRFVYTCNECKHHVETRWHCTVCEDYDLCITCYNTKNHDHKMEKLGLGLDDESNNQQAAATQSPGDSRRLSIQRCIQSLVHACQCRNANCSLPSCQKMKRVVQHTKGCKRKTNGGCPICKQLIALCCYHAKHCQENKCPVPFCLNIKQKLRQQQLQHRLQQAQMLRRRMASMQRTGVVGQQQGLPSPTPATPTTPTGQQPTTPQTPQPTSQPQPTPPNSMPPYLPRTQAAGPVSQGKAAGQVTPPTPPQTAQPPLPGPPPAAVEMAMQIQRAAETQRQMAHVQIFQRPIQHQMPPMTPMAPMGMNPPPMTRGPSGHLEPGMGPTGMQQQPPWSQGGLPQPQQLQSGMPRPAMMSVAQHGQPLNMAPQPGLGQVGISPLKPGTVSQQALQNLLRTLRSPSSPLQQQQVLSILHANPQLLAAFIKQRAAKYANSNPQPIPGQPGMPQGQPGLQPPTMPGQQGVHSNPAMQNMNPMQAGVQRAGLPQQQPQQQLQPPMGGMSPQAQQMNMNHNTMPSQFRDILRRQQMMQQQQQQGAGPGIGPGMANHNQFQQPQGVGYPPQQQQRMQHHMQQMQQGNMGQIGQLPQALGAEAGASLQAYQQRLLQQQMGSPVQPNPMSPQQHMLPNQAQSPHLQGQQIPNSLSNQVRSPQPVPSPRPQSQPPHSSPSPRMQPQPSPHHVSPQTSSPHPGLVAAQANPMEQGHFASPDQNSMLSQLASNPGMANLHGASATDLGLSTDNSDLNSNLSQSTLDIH
T1 sequence (Q92793 whole entry): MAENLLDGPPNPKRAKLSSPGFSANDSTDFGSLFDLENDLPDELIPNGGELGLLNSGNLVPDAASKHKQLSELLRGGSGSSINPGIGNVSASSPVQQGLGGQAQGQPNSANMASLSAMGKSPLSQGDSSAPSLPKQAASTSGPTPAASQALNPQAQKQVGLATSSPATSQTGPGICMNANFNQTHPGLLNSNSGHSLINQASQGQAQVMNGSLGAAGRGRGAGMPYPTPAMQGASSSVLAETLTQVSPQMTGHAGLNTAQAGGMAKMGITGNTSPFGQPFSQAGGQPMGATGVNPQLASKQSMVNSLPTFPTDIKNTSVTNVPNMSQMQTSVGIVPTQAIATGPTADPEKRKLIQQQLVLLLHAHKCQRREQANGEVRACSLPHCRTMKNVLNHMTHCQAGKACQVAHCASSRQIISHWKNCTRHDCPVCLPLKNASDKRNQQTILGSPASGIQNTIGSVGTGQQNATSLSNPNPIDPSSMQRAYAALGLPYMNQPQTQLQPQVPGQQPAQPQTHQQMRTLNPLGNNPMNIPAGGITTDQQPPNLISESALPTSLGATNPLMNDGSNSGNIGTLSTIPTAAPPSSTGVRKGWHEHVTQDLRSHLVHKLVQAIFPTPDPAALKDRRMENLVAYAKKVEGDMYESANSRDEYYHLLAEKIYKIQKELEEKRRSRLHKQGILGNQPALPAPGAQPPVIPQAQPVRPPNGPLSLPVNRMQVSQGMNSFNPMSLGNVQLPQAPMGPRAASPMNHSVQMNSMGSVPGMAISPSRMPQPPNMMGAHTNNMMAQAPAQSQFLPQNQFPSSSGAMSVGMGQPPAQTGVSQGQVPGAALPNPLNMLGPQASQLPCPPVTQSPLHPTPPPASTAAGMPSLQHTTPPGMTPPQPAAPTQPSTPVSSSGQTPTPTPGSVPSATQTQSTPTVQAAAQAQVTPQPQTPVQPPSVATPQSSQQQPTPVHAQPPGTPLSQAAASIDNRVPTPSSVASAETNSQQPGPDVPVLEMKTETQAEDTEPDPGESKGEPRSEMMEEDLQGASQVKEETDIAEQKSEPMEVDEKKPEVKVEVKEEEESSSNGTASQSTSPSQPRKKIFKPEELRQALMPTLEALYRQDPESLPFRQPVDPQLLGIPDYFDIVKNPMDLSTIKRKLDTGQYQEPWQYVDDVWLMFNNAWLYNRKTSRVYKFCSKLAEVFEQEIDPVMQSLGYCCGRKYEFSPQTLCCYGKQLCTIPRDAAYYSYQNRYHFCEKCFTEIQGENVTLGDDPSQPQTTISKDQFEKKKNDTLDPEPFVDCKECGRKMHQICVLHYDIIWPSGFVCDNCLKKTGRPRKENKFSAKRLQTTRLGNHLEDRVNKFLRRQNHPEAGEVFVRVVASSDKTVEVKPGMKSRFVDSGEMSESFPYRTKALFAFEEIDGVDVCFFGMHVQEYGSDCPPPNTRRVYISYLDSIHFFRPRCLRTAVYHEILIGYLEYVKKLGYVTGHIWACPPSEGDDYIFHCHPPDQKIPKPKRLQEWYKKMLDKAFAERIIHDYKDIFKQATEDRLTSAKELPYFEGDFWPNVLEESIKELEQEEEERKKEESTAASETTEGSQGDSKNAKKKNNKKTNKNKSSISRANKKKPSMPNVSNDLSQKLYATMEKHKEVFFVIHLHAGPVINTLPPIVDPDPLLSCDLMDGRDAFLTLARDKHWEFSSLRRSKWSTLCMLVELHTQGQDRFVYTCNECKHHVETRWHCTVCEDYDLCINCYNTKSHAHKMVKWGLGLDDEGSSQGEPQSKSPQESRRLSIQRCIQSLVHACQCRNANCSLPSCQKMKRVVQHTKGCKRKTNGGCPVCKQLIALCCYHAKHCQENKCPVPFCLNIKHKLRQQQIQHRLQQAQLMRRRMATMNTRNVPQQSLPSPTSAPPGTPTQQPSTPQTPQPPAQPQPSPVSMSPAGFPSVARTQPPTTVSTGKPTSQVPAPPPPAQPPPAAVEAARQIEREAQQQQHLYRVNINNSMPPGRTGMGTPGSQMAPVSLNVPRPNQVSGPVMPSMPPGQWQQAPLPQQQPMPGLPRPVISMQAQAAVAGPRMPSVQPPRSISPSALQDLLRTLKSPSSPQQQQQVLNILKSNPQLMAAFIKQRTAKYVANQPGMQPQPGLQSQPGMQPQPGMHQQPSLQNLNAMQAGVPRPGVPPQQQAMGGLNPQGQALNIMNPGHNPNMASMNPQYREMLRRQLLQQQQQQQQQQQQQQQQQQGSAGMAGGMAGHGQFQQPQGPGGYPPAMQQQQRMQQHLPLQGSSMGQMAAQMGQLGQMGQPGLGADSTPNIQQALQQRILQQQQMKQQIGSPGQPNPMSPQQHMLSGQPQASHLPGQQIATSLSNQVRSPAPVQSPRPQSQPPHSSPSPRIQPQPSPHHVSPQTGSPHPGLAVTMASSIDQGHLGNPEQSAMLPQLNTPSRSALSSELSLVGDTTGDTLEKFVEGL

SMILES	DC50 (CBP)	Dmax (CBP)	Dmax (p300)	DC50 (p300)
CN1CCN(c2nc(-c3cccc4cc(-c5ccc(C(=O)NCC#Cc6ccc7occ(C8CCC(=O)NC8=O)c7c6)nc5)ncc34)cc3c2n(C)c(=O)n3C)CC1 (stereo not shown) [Example A102, 5-(8-(1,3-dimethyl-4-(4-methylpiperazin-1-yl)-2-oxo-2,3-dihydro-1H-imidazo[4,5-c]pyridin-6-yl)iso-quinolin-3-yl)-N-(3-(3-(2,6-dioxopiperidin-3-yl)benzofuran-5-yl)prop-2-yn-1-yl) picolinamide]	> 1000 nM	< 20%	> 80%	< 1 nM
CCn1c(=O)n(C)c2c(N3CCOCC3)nc(-c3cccc4cc(-c5ccc(C(=O)NCC#Cc6ccc7occ(C8CCC(=O)NC8=O)c7c6)nc5)ncc34)cc21 (stereo not shown) [Example A108, N-(3-(3-(2,6-dioxo-piperidin-3-yl)benzofuran-5-yl)prop-2-yn-1-yl)-5-(8-(1-ethyl-3-methyl-4-morpholino-2-oxo-2,3-dihydro-1H-imidazo[4,5-c]pyridin-6-yl)isoquinolin-3-yl)picolinamide]	> 1000 nM	< 20%	> 80%	1 to 9.9 nM
Cc1cc(-c2cc3c(cc2F)N(c2ccc4c(c2)n(C)c(=O)n4C)CCO3)cnc1C(=O)NCC#Cc1ccc2occ(C3CCC(=O)NC3=O)c2c1 (stereo not shown) [Example A111, 5-(4-(1,3-dimethyl-2-oxo-2,3-dihydro-1H-benzo[d]imidazol-5-yl)-6-fluoro-3,4-dihydro-2H-benzo[b] [1,4]oxazin-7-yl)-N-(3-(3-(2,6-dioxo-piperidin-3-yl)benzofuran-5-yl)prop-2-yn-1-yl)-3-methylpicolinamide]	> 1000 nM	< 20%	> 80%	10 to 99 nM
Cn1c(=O)n(C)c2c(N3CC(O)C3)nc(-c3cccc4cc(-c5ccc(C(=O)NCC#Cc6ccc7occ(C8CCC(=O)NC8=O)c7c6)nc5)ncc34)cc21 (stereo not shown) [Example A115, N-(3-(3-(2,6-dioxo-piperidin-3-yl)benzofuran-5-yl)prop-2-yn-1-yl)-5-(8-(4-(3-hydroxyazetidin-1-yl)-1,3-dimethyl-2-oxo-2,3-dihydro-1H-imidazo[4,5-c]pyridin-6-yl)isoquinolin-3-yl)picolinamide]	> 1000 nM	< 20%	> 80%	< 1 nM
Cn1c(=O)n(C)c2cc(-c3cccc4cc(-c5ccc(C(=O)NCC#Cc6ccc7occ(C8CCC(=O)NC8=O)c7c6)nc5)ncc34)ccc21 (stereo not shown) [Example A119, 5-(8-(1,3-dimethyl-2-oxo-2,3-dihydro-1H-benzo[d]imidazol-5-yl)isoquinolin-3-yl)-N-(3-(3-(2,6-dioxo-piperidin-3-yl)benzofuran-5-yl)prop-2-yn-1-yl)picolinamide]	> 1000 nM	< 20%	> 80%	1 to 9.9 nM
CC(C)c1cc(N2CCOc3cc(-c4ccc(C(=O)NCC#Cc5ccc6occ(C7CCC(=O)NC7=O)c6c5)nc4)ccc32)cc2c1n(C)c(=O)n2C (stereo not shown) [Example A121, N-(3-(3-(2,6-dioxo-piperidin-3-yl)benzofuran-5-yl)prop-2-yn-1-yl)-5-(4-(7-isopropyl-1,3-dimethyl-2-oxo-2,3-dihydro-1H-benzo [d]imidazol-5-yl)-3,4-dihydro-2H-benzo [b][1,4]oxazin-7-yl)picolinamide]	> 1000 nM	< 20%	60 to 79%	10 to 99 nM
CN1CCN(c2ccc3c(c2)n(C)c(=O)n3C)c2cnc(-c3ccc(C(=O)NCC#Cc4ccc5occ(C6CCC(=O)NC6=O)c5c4)nc3)nc21 (stereo not shown) [Example A122, 5-(5-(1,3-dimethyl-2-oxo-2,3-dihydro-1H-benzo[d]imidazol-5-yl)-8-methyl-5,6,7,8-tetrahydropteridin-2-yl)-N-(3-(3-(2,6-dioxopiperidin-3-yl)benzofuran-5-yl)prop-2-yn-1-yl)picolinamide]	> 1000 nM	< 20%	> 80%	< 1 nM
Cn1c(=O)n(C)c2c(N3CCC(O)CC3)nc(-c3cccc4cc(-c5ccc(C(=O)NCC#Cc6ccc7occ(C8CCC(=O)NC8=O)c7c6)nc5)ncc34)cc21 (stereo not shown) [Example A124, N-(3-(3-(2,6-dioxo-piperidin-3-yl)benzofuran-5-yl)prop-2-yn-1-yl)-5-(8-(4-(4-hydroxypiperidin-1-yl)-1,3-dimethyl-2-oxo-2,3-dihydro-1H-imidazo[4,5-c]pyridin-6-yl)isoquinolin-3-yl)picolinamide]	> 1000 nM	< 20%	> 80%	< 1 nM
Cn1c(=O)n(C)c2c(N3CCOCC3)cc(N3CCCc4nc(-c5ccc(C(=O)NCC#Cc6ccc7occ(C8CCC(=O)NC8=O)c7c6)nc5)ncc43)cc21 (stereo not shown) [Example A127, 5-(5-(1,3-dimethyl-7-morpholino-2-oxo-2,3-dihydro-1H-benzo [d]imidazol-5-yl)-5,6,7,8-tetrahydro-pyrido[3,2-d]pyrimidin-2-yl)-N-(3-(3-(2,6-dioxopiperidin-3-yl)benzofuran-5-yl)prop-2-yn-1-yl)picolinamide]	> 1000 nM	< 20%	> 80%	< 1 nM
Cn1c(=O)n(C)c2cc(N3CCCc4nc(-c5ccc(C(=O)NCC#Cc6ccc7occ(C8CCC(=O)NC8=O)c7c6)nc5)ncc43)ccc21 (stereo not shown) [Example A132, 5-(5-(1,3-dimethyl-2-oxo-2,3-dihydro-1H-benzo[d]imidazol-5-yl)-5,6,7,8-tetrahydropyrido[3,2-d]pyrimidin-2-yl)-N-(3-(3-(2,6-dioxo-piperidin-3-yl)benzofuran-5-yl)prop-2-yn-1-yl)picolinamide]	> 1000 nM	< 20%	> 80%	1 to 9.9 nM
CC(C)c1cc(N2CCCc3nc(-c4ccc(C(=O)NCC#Cc5ccc6occ(C7CCC(=O)NC7=O)c6c5)nc4)ncc32)cc2c1n(C)c(=O)n2C (stereo not shown) [Example A133, N-(3-(3-(2,6-dioxo-piperidin-3-yl)benzofuran-5-yl)prop-2-yn-1-yl)-5-(5-(7-isopropyl-1,3-dimethyl-2-oxo-2,3-dihydro-1H-benzo [d]imidazol-5-yl)-5,6,7,8-tetrahydro-pyrido[3,2-d]pyrimidin-2-yl)picolinamide]	100 to 999 nM	< 20%	> 80%	1 to 9.9 nM
Cn1c(=O)n(C)c2c(N3CC4(COC4)C3)nc(-c3cccc4cc(-c5ccc(C(=O)NCC#Cc6ccc7occ(C8CCC(=O)NC8=O)c7c6)nc5)ncc34)cc21 (stereo not shown) [Example A136, 5-(8-(1,3-dimethyl-2-oxo-4-(2-oxa-6-azaspiro[3.3]heptan-6-yl)-2,3-dihydro-1H-imidazo[4,5-c]pyridin-6-yl)isoquinolin-3-yl)-N-(3-(3-(2,6-dioxopiperidin-3-yl)benzofuran-5-yl)prop-2-yn-1-yl)picolinamide]	> 1000 nM	< 20%	> 80%	1 to 9.9 nM
Cn1c(=O)n(C)c2c(N3CCOCC3)nc(-c3cccc4cc(-c5ccc(C(=O)NCC#Cc6ccc7occ(C8CCC(=O)NC8=O)c7c6)nc5)ncc34)cc21 (stereo not shown) [Example A138, 5-(8-(1,3-dimethyl-4-morpholino-2-oxo-2,3-dihydro-1H-imidazo[4,5-c]pyridin-6-yl)isoquinolin-3-yl)-N-(3-(3-(2,6-dioxopiperidin-3-yl)benzofuran-5-yl)prop-2-yn-1-yl)picolinamide]	> 1000 nM	< 20%	> 80%	< 1 nM
